# Results as given in patent EP0223671A1, “Medicament with a synergistic anti-inflammatory effect on the basis of a corticosteroid and a beta-agonist” (CENTRE INTERNATIONAL DE RECHERCHES DERMATOLOGIQUES GALDERMA …, priority 1985, dated 1987).
# Where a name gives a salt, the structure may show the parent alone. Marks after values point to notes of the source that are not given here.
# Columns and labels:
# [1] = system: oedème de l'oreille induit par l'huile de croton; assay: Croton oil-induced ear oedema test in the rat; assay type: in vivo; settings: inhibition of oedema vs control animals, topical on right ear 1 h before croton oil, read 6 h after, hydro-ethanolic gel vehicle
# Method: On applique de façon normalisée sur les faces interne et externe de l'oreille droite de rats une solution d'huile de croton ayant la composition suivante: • - pyridine : 4ml • - oxyde de diéthyle: 13ml • - huile de croton^*: 2ml • - eau qsp 20ml ^* SIGMA réf. C4755
# Les animaux traités reçoivent, une heure avant l'application de l'huile de croton, une application sur l'oreille droite par voie topique, du produit étudié dans le véhicule suivant (placebo):gel hydroéthanolique à 2X d'hydroxypropyl cellulose (KLUCEL HF); (proportion eau-éthanol : 80/20).
# Les animaux témoins ne reçoivent que l'application d'huile de croton.
# Six heures après l'application d'huile de croton, on évalue l'importance de l'oedème par comparaison de l'oreille droite et de l'oreille gauche. On calcule ensuite l'inhibition de l'oedème, en pourcentage, par rapport aux animaux témoins.
# érythème induit par UVB = assay: UVB-induced erythema test in the guinea pig; assay type: in vivo, cobaye; settings: dose 5 % p/v, 100 microlitres per site, topical 1 h after irradiation; vs animals given vehicle alone
# Method: Les flancs des cobayes sont rasés à la tondeuse 24 heures avant l'expérience. On soumet les animaux à une irradiation à l'aide d'une lampe à vapeur de mercure. On irradie pendant 30 secondes deux sites de diamètre 1,5cm sur chaque flanc. Une heure après l'irradiation, on applique par voie topique le produit étudié sur chaque site irradié d'un seul flanc. Les observations de l'érythème sont faites 2h, 3,5h, 5h et 24h après l'application du produit. L'érythème est évalué selon une échelle de 0 à 5.
# Les produits sont appliqués dans le véhicule suivant: • N,N-diméthylacétamide: 20ml • acétone : 40ml • éthanol : 40ml
# On applique un volume de 100 microlitres par site.
# On évalue l'importance de l'érythème en comparant les flancs droit et gauche. On calcule ensuite l'inhibition de l'érythème, en pourcentage, par rapport aux animaux témoins ayant reçu une application du véhicule seul.
SMILES,POURCENTAGE D'INHIBITION ([1]; dose 0.1 % p/v) [%],POURCENTAGE D'INHIBITION DE L'ERYTHEME 5 HEURES APRES APPLICATION (érythème induit par UVB),POURCENTAGE D'INHIBITION ([1]; dose 0.5 % p/v) [%],further results
"CCCC(=O)O[C@]1(C(=O)CO)CC[C@H]2[C@@H]3CCC4=CC(=O)CC[C@]4(C)[C@H]3[C@@H](O)C[C@@]21C [HYDROCORTISONE 17 BUTYRATE, Hydrocortisone-17 butyrate]",30,–,–,–
"C[C@]12CCC(=O)C=C1CC[C@@H]1[C@@H]2[C@@H](O)C[C@@]2(C)[C@H]1CC[C@]2(O)C(=O)CO [HYDROCORTISONE, Hydrocortisone]",14,3 NS %,–,–
CC(C)NCC(O)COc1cccc2ccccc12 (stereo not shown) [PROPRANOLOL],–,–,–,P[…]'INHIBITION ([1]; dose 0.5 % p/v): 5%
"CC(C)(C)NCC(O)c1ccc(O)c(CO)c1 (stereo not shown) [SALBUTAMOL SULFATE, 2-(tert-butylamino)-1-(4-hydroxy-3-hydroxyphényl)éthanol]",–,–,14,–
"CC(C)(C)NCC(O)c1ccc(O)c(CO)c1 (stereo not shown) [SALBUTAMOL, 2-(tert-butylamino)-1-(4-hydroxy-3-hydroxyphényl)éthanol]",–,14 * %,–,–
"CC(C)(C)NCC(O)c1cc(O)cc(O)c1 (stereo not shown) [TERBUTALINE SULFATE, 1-(3,5-dihydroxyphényl)-2-(tert-butylamino)éthanol]",–,–,12,–
